Test results: US10927123B2, “Modulators of the beta-3 adrenergic receptor useful for the treatment or prevention of disorders related thereto” (Arena Pharmaceuticals, Inc., priority 2016, dated 2021)

Molecular target: Beta-3 Adrenergic Receptor (Homo sapiens (Human), UniProt P13945)
Assay: HTRF cAMP antagonist assay (IC50 determination)
Format: cell-based
Conditions: CHO-K1 cells stably expressing recombinant receptor; antagonism of isoproterenol at EC90; cAMP readout
Method in brief: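 Antagonist mode: isoproterenol at its predetermined EC90 added after compound to recombinant CHO-K1 cells in IBMX-containing PBS, 1 h, room temperature. Compounds tested as 5-fold, 10-point dilutions, top final typically 10 or 100 μM. HTRF signal converted to cAMP via standard curve, giving IC50.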

Beta-3 Adrenergic Receptor, sequence (P13945 whole entry, species assumed): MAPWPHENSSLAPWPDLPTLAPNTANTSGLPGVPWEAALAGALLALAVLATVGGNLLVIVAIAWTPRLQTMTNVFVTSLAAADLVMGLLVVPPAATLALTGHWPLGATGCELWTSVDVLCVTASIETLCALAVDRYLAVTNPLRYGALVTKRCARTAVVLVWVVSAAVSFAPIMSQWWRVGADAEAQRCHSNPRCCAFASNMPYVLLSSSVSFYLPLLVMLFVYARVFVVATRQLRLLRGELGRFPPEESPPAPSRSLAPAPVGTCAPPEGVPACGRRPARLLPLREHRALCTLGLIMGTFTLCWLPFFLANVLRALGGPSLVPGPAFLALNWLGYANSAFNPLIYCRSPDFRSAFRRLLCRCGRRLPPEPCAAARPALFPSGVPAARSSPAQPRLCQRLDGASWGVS

SMILES: Cc1c(-c2ccc(CN)cc2)cccc1S(=O)(=O)N1CCC2(CC1)C[C@H](NC[C@H](O)COc1cccc(S(=O)(=O)C3(CO)CC3)c1)CO2 [Compound 197, (S)-1-((S)-8-(4′-(aminomethyl)-2-methylbiphenyl-3-ylsulfonyl)-1-oxa-8-azaspiro[4.5]decan-3-ylamino)-3-(3-(1-(hydroxymethyl)cyclopropylsulfonyl)phenoxy)propan-2-ol]
- IC50: 85 nM

SMILES: Cc1c(-c2ccc(C3(N)CC3)cc2)cccc1S(=O)(=O)N1CCC2(CC1)C[C@H](NC[C@H](O)COc1cccc(S(=O)(=O)C3(CO)CC3)c1)CO2 [Compound 198, (S)-1-((S)-8-(4′-(1-aminocyclopropyl)-2-methylbiphenyl-3-ylsulfonyl)-1-oxa-8-azaspiro[4.5]decan-3-ylamino)-3-(3-(1-(hydroxymethyl)cyclopropylsulfonyl)phenoxy)propan-2-ol]
- IC50: 62.2 nM

SMILES: COc1ccc(S(=O)(=O)N2CCC3(CC2)C[C@@H](NC[C@H](O)COc2cccc(S(=O)(=O)C4(CO)CC4)c2)CO3)cc1-c1ccc(C2(N)CC2)cc1 [Compound 199, (S)-1-((R)-8-(4′-(1-aminocyclopropyl)-6-methoxybiphenyl-3-ylsulfonyl)-1-oxa-8-azaspiro[4.5]decan-3-ylamino)-3-(3-(1-(hydroxymethyl)cyclopropylsulfonyl)phenoxy)propan-2-ol]
- IC50: 25 nM

SMILES: Cc1c(Br)cccc1S(=O)(=O)N1CCC2(CC1)C[C@H](NC[C@H](O)COc1cccc(S(=O)(=O)C3(CO)CC3)c1)CO2 [Compound 200, (S)-1-((S)-8-(3-bromo-2-methylphenylsulfonyl)-1-oxa-8-azaspiro[4.5]decan-3-ylamino)-3-(3-(1-(hydroxymethyl)cyclopropylsulfonyl)phenoxy)propan-2-ol]
- IC50: 72.4 nM

SMILES: COc1ccc(S(=O)(=O)N2CCC3(CC2)C[C@H](NC[C@H](O)COc2cccc(S(=O)(=O)C4(CO)CC4)c2)CO3)cc1Br [Compound 201, (S)-1-((S)-8-(3-bromo-4-methoxyphenylsulfonyl)-1-oxa-8-azaspiro[4.5]decan-3-ylamino)-3-(3-(1-(hydroxymethyl)cyclopropylsulfonyl)phenoxy)propan-2-ol]
- IC50: 41.8 nM

SMILES: O=S(=O)(c1cccnc1)N1CCC2(CC1)C[C@H](NC[C@H](O)COc1cccc(S(=O)(=O)C3(CO)CC3)c1)CO2 [Compound 202, (S)-1-(3-(1-(hydroxymethyl)cyclopropylsulfonyl)phenoxy)-3-((S)-8-(pyridin-3-ylsulfonyl)-1-oxa-8-azaspiro[4.5]decan-3-ylamino)propan-2-ol]
- IC50: 346 nM

SMILES: Cc1c(-c2ccc(CN)cc2)cccc1S(=O)(=O)N1CCC2(CC1)C[C@@H](NC[C@H](O)COc1cccc(S(=O)(=O)C3(CO)CC3)c1)CO2 [Compound 203, (S)-1-((R)-8-(4′-(aminomethyl)-2-methylbiphenyl-3-ylsulfonyl)-1-oxa-8-azaspiro[4.5]decan-3-ylamino)-3-(3-(1-(hydroxymethyl)cyclopropylsulfonyl)phenoxy)propan-2-ol]
- IC50: 1110 nM

SMILES: Cc1c(-c2ccc(C3(N)CC3)cc2)cccc1S(=O)(=O)N1CCC2(CC1)C[C@@H](NC[C@H](O)COc1cccc(S(=O)(=O)C3(CO)CC3)c1)CO2 [Compound 204, (S)-1-((R)-8-(4′-(1-aminocyclopropyl)-2-methylbiphenyl-3-ylsulfonyl)-1-oxa-8-azaspiro[4.5]decan-3-ylamino)-3-(3-(1-(hydroxymethyl)cyclopropylsulfonyl)phenoxy)propan-2-ol]
- IC50: 504 nM

SMILES: CCOc1ccc(-c2ccc(CN)cc2)cc1S(=O)(=O)N1CCC2(CC1)C[C@H](NC[C@H](O)COc1cccc(S(=O)(=O)CC(N)=O)c1)CO2 [Compound 205, 2-(3-((S)-3-((S)-8-(4′-(aminomethyl)-4-ethoxybiphenyl-3-ylsulfonyl)-1-oxa-8-azaspiro[4.5]decan-3-ylamino)-2-hydroxypropoxy)phenylsulfonyl)acetamide]
- IC50: 92.2 nM

SMILES: COc1c(-c2ccc(CN)cc2)cccc1S(=O)(=O)N1CCC2(CC1)C[C@H](NC[C@H](O)COc1cccc(S(=O)(=O)CC(N)=O)c1)CO2 [Compound 206, 2-(3-((S)-3-((S)-8-(4′-(aminomethyl)-2-methoxybiphenyl-3-ylsulfonyl)-1-oxa-8-azaspiro[4.5]decan-3-ylamino)-2-hydroxypropoxy)phenylsulfonyl)acetamide]
- IC50: 403 nM

SMILES: COc1ccc(S(=O)(=O)N2CCC3(CC2)C[C@H](NC[C@H](O)COc2cccc(S(=O)(=O)C4(CO)CC4)c2)CO3)cc1-c1ccc(CN)cc1 [Compound 207, (S)-1-((S)-8-(4′-(aminomethyl)-6-methoxybiphenyl-3-ylsulfonyl)-1-oxa-8-azaspiro[4.5]decan-3-ylamino)-3-(3-(1-(hydroxymethyl)cyclopropylsulfonyl)phenoxy)propan-2-ol]
- IC50: 51.1 nM

SMILES: COc1ccc(S(=O)(=O)N2CCC3(CC2)C[C@@H](NC[C@H](O)COc2cccc(S(=O)(=O)C4(CO)CC4)c2)CO3)cc1-c1ccc(CN)cc1 [Compound 208, (S)-1-((R)-8-(4′-(aminomethyl)-6-methoxybiphenyl-3-ylsulfonyl)-1-oxa-8-azaspiro[4.5]decan-3-ylamino)-3-(3-(1-(hydroxymethyl)cyclopropylsulfonyl)phenoxy)propan-2-ol]
- IC50: 34.8 nM

SMILES: CCOc1ccc(-c2ccc(CN)cc2)cc1S(=O)(=O)N1CCC2(CC1)C[C@H](NC[C@H](O)COc1cccc(S(C)(=O)=O)c1F)CO2 [Compound 209, (S)-1-((S)-8-(4′-(aminomethyl)-4-ethoxybiphenyl-3-ylsulfonyl)-1-oxa-8-azaspiro[4.5]decan-3-ylamino)-3-(2-fluoro-3-(methylsulfonyl)phenoxy)propan-2-ol]
- IC50: 8.79 nM

SMILES: NCCc1ccc(-c2cccc(S(=O)(=O)N3CCC4(CC3)C[C@H](NC[C@H](O)COc3cccc(S(=O)(=O)C(F)(F)CO)c3)CO4)c2)cc1 [Compound 210, (S)-1-((S)-8-(4′-(2-aminoethyl)biphenyl-3-ylsulfonyl)-1-oxa-8-azaspiro[4.5]decan-3-ylamino)-3-(3-(1,1-difluoro-2-hydroxyethylsulfonyl)phenoxy)propan-2-ol]
- IC50: 22.4 nM

SMILES: NCCc1ccc(-c2cccc(S(=O)(=O)N3CCC4(CC3)C[C@H](NC[C@H](O)COc3cccc(S(=O)(=O)C5(CO)CC5)c3)CO4)c2)cc1 [Compound 211, (S)-1-((S)-8-(4′-(2-aminoethyl)biphenyl-3-ylsulfonyl)-1-oxa-8-azaspiro[4.5]decan-3-ylamino)-3-(3-(1-(hydroxymethyl)cyclopropylsulfonyl)phenoxy)propan-2-ol]
- IC50: 26.2 nM

SMILES: NCCc1ccc(-c2cccc(S(=O)(=O)N3CCC4(CC3)C[C@@H](NC[C@H](O)COc3cccc(S(=O)(=O)C5(CO)CC5)c3)CO4)c2)cc1 [Compound 212, (S)-1-((R)-8-(4′-(2-aminoethyl)biphenyl-3-ylsulfonyl)-1-oxa-8-azaspiro[4.5]decan-3-ylamino)-3-(3-(1-(hydroxymethyl)cyclopropylsulfonyl)phenoxy)propan-2-ol]
- IC50: 26 nM

SMILES: NCCc1ccc(-c2cccc(S(=O)(=O)N3CCC4(CC3)C[C@@H](NC[C@H](O)COc3cccc(S(=O)(=O)C(F)(F)CO)c3)CO4)c2)cc1 [Compound 213, (S)-1-((R)-8-(4′-(2-aminoethyl)biphenyl-3-ylsulfonyl)-1-oxa-8-azaspiro[4.5]decan-3-ylamino)-3-(3-(1,1-difluoro-2-hydroxyethylsulfonyl)phenoxy)propan-2-ol]
- IC50: 18.6 nM

SMILES: CCOc1ccc(-c2ccc(CCN)cc2)cc1S(=O)(=O)N1CCC2(CC1)C[C@H](NC[C@H](O)COc1cccc(S(=O)(=O)C3(CO)CC3)c1)CO2 [Compound 214, (S)-1-((S)-8-(4′-(2-aminoethyl)-4-ethoxybiphenyl-3-ylsulfonyl)-1-oxa-8-azaspiro[4.5]decan-3-ylamino)-3-(3-(1-(hydroxymethyl)cyclopropylsulfonyl)phenoxy)propan-2-ol]
- IC50: 36.7 nM

SMILES: COc1ccc(S(=O)(=O)N2CCC3(CC2)C[C@H](NC[C@H](O)COc2cccc(S(=O)(=O)C4(CO)CC4)c2)CO3)cc1-c1ccc(CCN)cc1 [Compound 215, (S)-1-((S)-8-(4′-(2-aminoethyl)-6-methoxybiphenyl-3-ylsulfonyl)-1-oxa-8-azaspiro[4.5]decan-3-ylamino)-3-(3-(1-(hydroxymethyl)cyclopropylsulfonyl)phenoxy)propan-2-ol]
- IC50: 38.4 nM

SMILES: NCc1ccc(-c2cc(S(=O)(=O)N3CCC4(CC3)C[C@@H](NC[C@H](O)COc3cccc(S(=O)(=O)C5(CO)CC5)c3)CO4)ccc2F)cc1 [Compound 216, (S)-1-((R)-8-(4′-(aminomethyl)-6-fluorobiphenyl-3-ylsulfonyl)-1-oxa-8-azaspiro[4.5]decan-3-ylamino)-3-(3-(1-(hydroxymethyl)cyclopropylsulfonyl)phenoxy)propan-2-ol]
- IC50: 26.4 nM

SMILES: NC1(c2ccc(-c3cc(S(=O)(=O)N4CCC5(CC4)C[C@@H](NC[C@H](O)COc4cccc(S(=O)(=O)C6(CO)CC6)c4)CO5)ccc3F)cc2)CC1 [Compound 217, (S)-1-((R)-8-(4′-(1-aminocyclopropyl)-6-fluorobiphenyl-3-ylsulfonyl)-1-oxa-8-azaspiro[4.5]decan-3-ylamino)-3-(3-(1-(hydroxymethyl)cyclopropylsulfonyl)phenoxy)propan-2-ol]
- IC50: 28.4 nM

SMILES: NCc1ccc(-c2cc(S(=O)(=O)N3CCC4(CC3)C[C@H](NC[C@H](O)COc3cccc(S(=O)(=O)C5(CO)CC5)c3)CO4)ccc2F)cc1 [Compound 218, (S)-1-((S)-8-(4′-(aminomethyl)-6-fluorobiphenyl-3-ylsulfonyl)-1-oxa-8-azaspiro[4.5]decan-3-ylamino)-3-(3-(1-(hydroxymethyl)cyclopropylsulfonyl)phenoxy)propan-2-ol]
- IC50: 29.3 nM

SMILES: NC1(c2ccc(-c3cc(S(=O)(=O)N4CCC5(CC4)C[C@H](NC[C@H](O)COc4cccc(S(=O)(=O)C6(CO)CC6)c4)CO5)ccc3F)cc2)CC1 [Compound 219, (S)-1-((S)-8-(4′-(1-aminocyclopropyl)-6-fluorobiphenyl-3-ylsulfonyl)-1-oxa-8-azaspiro[4.5]decan-3-ylamino)-3-(3-(1-(hydroxymethyl)cyclopropylsulfonyl)phenoxy)propan-2-ol]
- IC50: 21.6 nM
